# Where a SMILES comes first, the peptide text is derived from it. [ ]: non-standard residue; d: D form. The star is where a group is joined. Sta = CC(C)C[C@H](N)[C@@H](O)CC(=O)O; pNA = O=[N+]([O-])c1ccc(N*)cc1; AMC = Cc1cc(=O)oc2cc(N*)ccc12; Isovaleryl = CC(C)CC(=O)*; βNA = c1ccc2cc(N*)ccc2c1; Boc = CC(C)(C)OC(=O)*
# Biological target: T1, Tap (tripeptidyl aminopeptidase) (Streptomyces lividans, UniProt Q54410)
# T1 construct: An autolytic tripeptide cleavage removing APA after signal peptide removal would yield the N-terminal found for the secreted protease; made in house; host or cells: Streptomyces lividans 66 (wild-type strain, native secreted enzyme purified from the broth)
# T1 sequence (Q54410 40-537): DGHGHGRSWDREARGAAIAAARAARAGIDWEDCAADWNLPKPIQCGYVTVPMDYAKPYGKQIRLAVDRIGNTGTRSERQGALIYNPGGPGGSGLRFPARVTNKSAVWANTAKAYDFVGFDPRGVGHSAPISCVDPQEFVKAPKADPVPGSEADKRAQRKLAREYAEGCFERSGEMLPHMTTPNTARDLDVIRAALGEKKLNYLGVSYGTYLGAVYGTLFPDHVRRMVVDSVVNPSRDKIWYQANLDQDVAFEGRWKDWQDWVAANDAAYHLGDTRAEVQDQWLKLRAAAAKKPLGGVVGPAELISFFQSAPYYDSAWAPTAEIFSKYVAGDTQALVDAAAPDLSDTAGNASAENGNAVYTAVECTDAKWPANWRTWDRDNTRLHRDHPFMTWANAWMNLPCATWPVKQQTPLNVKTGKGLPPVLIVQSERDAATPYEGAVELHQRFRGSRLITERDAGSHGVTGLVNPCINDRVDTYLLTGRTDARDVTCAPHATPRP
# Assay: Inhibition of TAP in the APA-pNA assay (protease inhibitor survey, Table I)
# Type: biochemical, S. lividans 66
# Conditions: inhibitor 0.1 mM; preincubated 15 minutes at 22° C.; substrate APA-pNA; enzyme only = 100
# Description: The protease and inhibitor were preincubated for 15 minutes at 22° C. Substrate was added and the mixture was incubated at 37° C. Activity was measured by monitoring the change in absorbance at λ=405 nm.
# (§1) The assay was conducted in a 96 well microtiter plate. To each well in the assay, 50 ul 100 mM Tris-HCl, pH 8.0, were added followed by 25 ul 3.2 mM APA-pNA. 25 ul of Tap were added to the wells and the absorbance was read at 405 nm. The assays were incubated at 37° C. for 2 hours. The absorbance was read at 405 nm. The activity (release of p-nitroaniline) was calculated from the change in absorbance.
row,Compound,Residual Activity
1,Chymostatin,98
2,[Cl][Hg][Cl] [HgCl1],99

# Same assay, conditions: inhibitor 0.1 mM; preincubated 15 minutes at 22° C.; substrate APA-pNA; enzyme only = 100; read-out: Residual Activity
row,Compound,remaining activity at 100 µM [%]
1,CC(C)CC(=O)N[C@H](C(=O)N[C@H](C(=O)N[C@@H](CC(C)C)[C@@H](O)CC(=O)N[C@@H](C)C(=O)N[C@@H](CC(C)C)[C@@H](O)CC(=O)O)C(C)C)C(C)C [Pepstatin] (Isovaleryl-VV[Sta]A[Sta]-OH),95
2,CC(C)C[C@H](NC(=O)N[C@H](C(=O)N[C@@H](CCC(N)=O)C(=O)N[C@@H](C)C=O)[C@@H]1CCNC(=N)N1)C(=O)O [Elastatinal],97

# Same assay, conditions: inhibitor 1.0 mM; preincubated 15 minutes at 22° C.; substrate APA-pNA; enzyme only = 100
row,Compound,Residual Activity
1,[Ca+2].[Cl-].[Cl-] [CaCl2],96
2,[Cl][Hg][Cl] [HgCl1],93
3,[Cl-].[Cl-].[Co+2] [CoCl2],98

# Same assay, conditions: inhibitor 1.0 mM; preincubated 15 minutes at 22° C.; substrate APA-pNA; enzyme only = 100; read-out: Residual Activity
row,remaining activity at 1000 µM [%],Compound
1,86,OC(CS)C(O)CS (stereo not drawn) [DTT]

# Same assay, conditions: inhibitor 10 mM; preincubated 15 minutes at 22° C.; substrate APA-pNA; enzyme only = 100
row,Compound,Residual Activity
1,[Ca+2].[Cl-].[Cl-] [CaCl2],97
2,[Cl-].[Cl-].[Co+2] [CoCl2],97

# Same assay, conditions: inhibitor 10 mM; preincubated 15 minutes at 22° C.; substrate APA-pNA; enzyme only = 100; read-out: Residual Activity
row,Compound,remaining activity at 10000 µM [%]
1,N=C(N)c1ccccc1 [Benzamidine],94

# Same assay, conditions: read-out: Residual Activity
Compound,remaining activity at 1000 µM [%],remaining activity at 10000 µM [%]
"O=C(O)CN(CCN(CC(=O)O)CC(=O)O)CC(=O)O [EDTA, Ethylenediaminetetraacetic acid]",95,95

# Biological target: T1, Tap (tripeptidyl aminopeptidase)
# Assay: Release of reporter group from synthetic substrates by pure Tap
# Type: biochemical, S. lividans 66
# Conditions: not given
# Description: The enzyme was also active when APM-pNA, APA-AMC, APS-bNA, GPL-bNA, and SPA-bNA were used as substrates. […] The enzyme only released the reporter group from substrates with a free amino terminal.
# as §1
row,Compound,release of reporter group when used as substrate of Tap
1,"CC(C)C[C@H](NC(=O)[C@@H]1CCCN1C(=O)CN)C(=O)Nc1ccc2ccccc2c1 [GPL-bNA, Glycyl-L-prolyl-L-leucine beta-napthylamide] (H-Gly-Pro-Leu-βNA)",active
2,"CC(C)C[C@H](N)C(=O)Nc1ccc([N+](=O)[O-])cc1 [L-pNA, L-leucine p-nitroanilide]",did not release the reporter group
3,"N[C@@H](CO)C(=O)Nc1ccc2ccccc2c1 [S-bNA, L-serine beta-naphthylamide]",did not release the reporter group
4,"C[C@H](N)C(=O)N1CCC[C@H]1C(=O)N[C@@H](C)C(=O)Nc1ccc([N+](=O)[O-])cc1 [APApNA, L-alanyl-L-prolyl-L-alanine p-nitroanilide] (H-Ala-Pro-Ala-pNA)",releases p-nitroaniline
5,"C[C@H](NC(=O)OC(C)(C)C)C(=O)N[C@@H](C)C(=O)N1CCC[C@H]1C(=O)N[C@@H](C)C(=O)Nc1ccc([N+](=O)[O-])cc1 [Boc-AAPA-pNA, N-t-butoxycarbonyl L-alanyl-L-alanyl-L-prolyl-L-alanine p-nitroanilide] (Boc-AAPA-pNA)",did not release the reporter group
6,"C[C@H](NC(=O)[C@@H]1CCCN1C(=O)[C@@H](N)CO)C(=O)Nc1ccc2ccccc2c1 [SPA-bNA, L-seryl-L-prolyl-L-alanine beta-naphthylamide] (H-Ser-Pro-Ala-βNA)",active
7,"CC(=O)N[C@@H](C)C(=O)N1CCC[C@H]1C(=O)N[C@@H](C)C(=O)Nc1ccc([N+](=O)[O-])cc1 [N-Ac-APA-pNA, N-acetyl-L-alanyl-L-prolyl-L-alanine p-nitroanilide] (Ac-Ala-Pro-Ala-pNA)",did not release the reporter group
8,"C[C@H](N)C(=O)N1CCC[C@H]1C(=O)N[C@@H](CO)C(=O)Nc1ccc2ccccc2c1 [APS-bNA, L-alanyl-L-prolyl-L-serine beta-naphthylamide] (H-Ala-Pro-Ser-βNA)",active
9,"O=C(Nc1ccc([N+](=O)[O-])cc1)[C@@H]1CCCN1 [P-pNA, L-proline p-nitroanilide]",did not release the reporter group
10,"C[C@H](N)C(=O)N[C@@H](C)C(=O)Nc1ccc([N+](=O)[O-])cc1 [AA-pNA, L-alanyl-L-alanine p-nitroanilide] (H-Ala-Ala-pNA)",did not release the reporter group
11,"Cc1cc(=O)oc2cc(NC(=O)[C@H](C)NC(=O)[C@@H]3CCCN3C(=O)[C@H](C)N)ccc12 [APA-AMC, L-alanyl-L-prolyl-L-alanine 7-amino-4-methylcoumarin] (H-Ala-Pro-Ala-{AMC})",active
12,"N=C(N)NCCC[C@H](N)C(=O)Nc1ccc([N+](=O)[O-])cc1 [R-pNA, L-arginine p-nitroanilide]",did not release the reporter group
13,"N=C(N)NCCC[C@H](NC(=O)[C@H](Cc1ccccc1)NC(=O)[C@H]1CCCN1)C(=O)Nc1ccc([N+](=O)[O-])cc1 [D-PFR-pNA, D-prolyl-L-phenylalanyl-L-arginine p-nitroanilide] (H-[dP]-Phe-Arg-pNA)",did not release the reporter group
14,"C[C@H](NC(=O)[C@@H]1CCCN1C(=O)[C@H](C)NC(=O)OC(C)(C)C)C(=O)N[C@@H](CCCNC(=N)N)C(=O)N[C@@H](CO)C(=O)N1CCC[C@H]1C(=O)N[C@@H](C)C(=O)Nc1ccc2ccccc2c1 [Boc-APARSPA-bNA, L-alanyl-L-prolyl-L-analyl-L-arginyl-L-seryl-L-prolyl-L-alanine beta-naphthylamide] (Boc-APARSPA-βNA)",did not release the reporter group
15,N-benzoyl-L-alanyl-glycyl-L-arginine p-nitroanilide [N-Bz-VGR-pNA],did not release the reporter group
16,"CSCC[C@H](NC(=O)[C@@H]1CCCN1C(=O)[C@H](C)N)C(=O)Nc1ccc([N+](=O)[O-])cc1 [APM-pNA, L-alanyl-L-prolyl-L-methione p-nitroanilide] (H-Ala-Pro-Met-pNA)",active
17,N=C(N)NCCC[C@H](NC(=O)c1ccccc1)C(=O)Nc1ccc([N+](=O)[O-])cc1 [N-Bz-R-pNA],did not release the reporter group
18,"NCC(=O)N1CCC[C@H]1C(=O)Nc1ccc([N+](=O)[O-])cc1 [GP-pNA, Glycyl-L-proline p-nitroanilide] (H-Gly-Pro-pNA)",did not release the reporter group
19,"C[C@H](N)C(=O)N[C@@H](C)C(=O)N1CCC[C@H]1C(=O)N[C@@H](C)C(=O)Nc1ccc([N+](=O)[O-])cc1 [AAPA-pNA, L-alanyl-L-alanyl-L-prolyl-L-analine p-nitroanilide] (H-AAPA-pNA)",did not release the reporter group
20,"C[C@H](N)C(=O)Nc1ccc([N+](=O)[O-])cc1 [A-pNA, L-alanine p-nitroanilide]",did not release the reporter group
